Results: ChEMBL document CHEMBL1201862, “PubChem BioAssay data set” (2004)
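Following 48 hours of exposure in 96-well plates, responses at five concentrations were used to interpolate endpoints linearly. Here, GI50 denotes the concentration required for 50% inhibition of growth.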 The source made the active and inactive calls. Rule as the data show it: active = GI50 up to about 1.1 µM and inactive = higher.

Legend:
Experiment in all cases: NCI tumour cell line growth inhibition, 48 h
786-0 = test system: 786-0
A498 = test system: A498
A549 = test system: A549
ACHN = test system: ACHN
BT-549 = test system: BT-549
CAKI-1 = test system: CAKI-1
CCRF-CEM = test system: CCRF-CEM
COLO 205 = test system: COLO 205
DU-145 = test system: DU-145
EKVX = test system: EKVX
HCC 2998 = test system: HCC 2998
HCT-116 = test system: HCT-116
HCT-15 = test system: HCT-15
HL-60 = test system: HL-60
HOP-62 = test system: HOP-62
HOP-92 = test system: HOP-92
HT-29 = test system: HT-29
Hs-578T = test system: Hs-578T
IGROV-1 = test system: IGROV-1
K562 = test system: K562
KM12 = test system: KM12
LOX IMVI = test system: LOX IMVI
M14 = test system: M14
MCF7 = test system: MCF7
MDA-MB-231 = test system: MDA-MB-231
MDA-MB-435 = test system: MDA-MB-435
MDA-N = test system: MDA-N
MOLT-4 = test system: MOLT-4
Malme-3M = test system: Malme-3M
NCI-H226 = test system: NCI-H226
NCI-H23 = test system: NCI-H23
NCI-H460 = test system: NCI-H460
NCI-H522 = test system: NCI-H522
NCI/ADR-RES = test system: NCI/ADR-RES
OVCAR-3 = test system: OVCAR-3
OVCAR-4 = test system: OVCAR-4
OVCAR-5 = test system: OVCAR-5
OVCAR-8 = test system: OVCAR-8
PC-3 = test system: PC-3
RPMI-8226 = test system: RPMI-8226
RXF 393 = test system: RXF 393
SF-268 = test system: SF-268
SF-295 = test system: SF-295
SF-539 = test system: SF-539
SK-MEL-28 = test system: SK-MEL-28
SK-MEL-2 = test system: SK-MEL-2
SK-MEL-5 = test system: SK-MEL-5
SK-OV-3 = test system: SK-OV-3
SN12C = test system: SN12C
SNB-19 = test system: SNB-19
SNB-75 = test system: SNB-75
SR = test system: SR
SW-620 = test system: SW-620
T47D = test system: T47D
TK-10 = test system: TK-10
U-251 = test system: U-251
UACC-257 = test system: UACC-257
UACC-62 = test system: UACC-62
UO-31 = test system: UO-31

## CC(Oc1ccc(Cl)cc1Cl)C(=O)NN1C(=O)CSC1c1ccccc1 (configuration not stated)
786-0
  GI50: 43.5 µM (inactive)
A498
  GI50: 42.8 µM (inactive)
A549
  GI50: 39.3 µM (inactive)
ACHN
  GI50: 68.5 µM (inactive)
BT-549
  GI50: 24 µM (inactive)
CAKI-1
  GI50: 20.4 µM (inactive)
CCRF-CEM
  GI50: 66.7 µM (inactive)
COLO 205
  GI50: > 100 µM (inactive)
DU-145
  GI50: 91 µM (inactive)
EKVX
  GI50: 90.2 µM (inactive)
HCC 2998
  GI50: > 100 µM (inactive)
HCT-116
  GI50: 45.7 µM (inactive)
HCT-15
  GI50: > 100 µM
HL-60
  GI50: 27.3 µM (inactive)
HOP-62
  GI50: 47.5 µM (inactive)
HOP-92
  GI50: 27.7 µM (inactive)
HT-29
  GI50: > 100 µM (inactive)
Hs-578T
  GI50: 45.6 µM (inactive)
IGROV-1
  GI50: 54 µM (inactive)
K562
  GI50: 63.4 µM (inactive)
KM12
  GI50: 64 µM (inactive)
LOX IMVI
  GI50: 69 µM (inactive)
M14
  GI50: 54.2 µM (inactive)
MCF7
  GI50: 55.3 µM (inactive)
MDA-MB-231
  GI50: 37.8 µM (inactive)
MDA-MB-435
  GI50: > 100 µM (inactive)
MDA-N
  GI50: > 100 µM (inactive)
MOLT-4
  GI50: > 100 µM (inactive)
Malme-3M
  GI50: 40.9 µM (inactive)
NCI-H226
  GI50: 24.2 µM (inactive)
NCI-H23
  GI50: 86.5 µM (inactive)
NCI-H460
  GI50: > 100 µM (inactive)
NCI-H522
  GI50: 56.2 µM (inactive)
NCI/ADR-RES
  GI50: 86.3 µM (inactive)
OVCAR-3
  GI50: 96.4 µM (inactive)
OVCAR-4
  GI50: 32.1 µM (inactive)
OVCAR-5
  GI50: > 100 µM (inactive)
OVCAR-8
  GI50: 51.1 µM (inactive)
PC-3
  GI50: 32.4 µM (inactive)
RPMI-8226
  GI50: 49.2 µM (inactive)
RXF 393
  GI50: 54.7 µM (inactive)
SF-268
  GI50: 60.5 µM (inactive)
SF-295
  GI50: 60 µM (inactive)
SF-539
  GI50: > 100 µM (inactive)
SK-MEL-28
  GI50: 50.5 µM (inactive)
SK-MEL-2
  GI50: 45.4 µM (inactive)
SK-MEL-5
  GI50: 70.8 µM (inactive)
SK-OV-3
  GI50: 55.8 µM (inactive)
SN12C
  GI50: 69.2 µM (inactive)
SNB-19
  GI50: 47.6 µM (inactive)
SNB-75
  GI50: 34.7 µM (inactive)
SR
  GI50: 3.89 µM (inactive)
SW-620
  GI50: > 100 µM (inactive)
T47D
  GI50: 56.8 µM (inactive)
TK-10
  GI50: > 100 µM (inactive)
U-251
  GI50: 76.4 µM (inactive)
UACC-257
  GI50: 53.2 µM (inactive)
UACC-62
  GI50: 50.2 µM (inactive)
UO-31
  GI50: > 100 µM (inactive)

## CC(NNC(=O)c1cc[n+]([BH2-]C#N)cc1)C(F)(F)F (configuration not stated)
786-0
  GI50: > 100 µM (inactive)
A498
  GI50: > 100 µM (inactive)
A549
  GI50: > 100 µM (inactive)
ACHN
  GI50: > 100 µM (inactive)
BT-549
  GI50: > 100 µM (inactive)
CAKI-1
  GI50: > 100 µM (inactive)
CCRF-CEM
  GI50: > 100 µM (inactive)
COLO 205
  GI50: > 100 µM (inactive)
DU-145
  GI50: > 100 µM (inactive)
EKVX
  GI50: > 100 µM (inactive)
HCC 2998
  GI50: > 100 µM (inactive)
HCT-116
  GI50: > 100 µM (inactive)
HCT-15
  GI50: > 100 µM
HL-60
  GI50: > 100 µM (inactive)
HOP-62
  GI50: > 100 µM (inactive)
HOP-92
  GI50: > 100 µM (inactive)
HT-29
  GI50: > 100 µM (inactive)
Hs-578T
  GI50: > 100 µM (inactive)
IGROV-1
  GI50: > 100 µM (inactive)
K562
  GI50: > 100 µM (inactive)
KM12
  GI50: > 100 µM (inactive)
LOX IMVI
  GI50: > 100 µM (inactive)
M14
  GI50: > 100 µM (inactive)
MCF7
  GI50: > 100 µM (inactive)
MDA-MB-231
  GI50: > 100 µM (inactive)
MDA-MB-435
  GI50: > 100 µM (inactive)
MDA-N
  GI50: > 100 µM (inactive)
MOLT-4
  GI50: > 100 µM (inactive)
Malme-3M
  GI50: > 100 µM (inactive)
NCI-H226
  GI50: > 100 µM (inactive)
NCI-H23
  GI50: > 100 µM (inactive)
NCI-H460
  GI50: > 100 µM (inactive)
NCI-H522
  GI50: > 100 µM (inactive)
NCI/ADR-RES
  GI50: > 100 µM (inactive)
OVCAR-3
  GI50: > 100 µM (inactive)
OVCAR-4
  GI50: > 100 µM (inactive)
OVCAR-5
  GI50: > 100 µM (inactive)
OVCAR-8
  GI50: > 100 µM (inactive)
PC-3
  GI50: > 100 µM (inactive)
RPMI-8226
  GI50: > 100 µM (inactive)
RXF 393
  GI50: > 100 µM (inactive)
SF-268
  GI50: > 100 µM (inactive)
SF-295
  GI50: > 100 µM (inactive)
SF-539
  GI50: > 100 µM (inactive)
SK-MEL-28
  GI50: > 100 µM (inactive)
SK-MEL-2
  GI50: > 100 µM (inactive)
SK-MEL-5
  GI50: > 100 µM (inactive)
SK-OV-3
  GI50: > 100 µM (inactive)
SN12C
  GI50: > 100 µM (inactive)
SNB-19
  GI50: > 100 µM (inactive)
SNB-75
  GI50: > 100 µM (inactive)
SR
  GI50: > 100 µM (inactive)
SW-620
  GI50: > 100 µM (inactive)
T47D
  GI50: > 100 µM (inactive)
TK-10
  GI50: > 100 µM (inactive)
U-251
  GI50: > 100 µM (inactive)
UACC-257
  GI50: > 100 µM (inactive)
UACC-62
  GI50: > 100 µM (inactive)
UO-31
  GI50: > 100 µM (inactive)

## CC1(C)CC[C@]2(C(=O)O)CC[C@]3(C)C(=CC[C@@H]4[C@@]5(C)C[C@H](O)[C@H](O)[C@@](C)(C(=O)O)[C@@H]5CC[C@]43C)[C@@H]2C1
786-0
  GI50: > 100 µM (inactive)
A498
  GI50: > 100 µM (inactive)
A549
  GI50: > 100 µM (inactive)
ACHN
  GI50: > 100 µM (inactive)
BT-549
  GI50: > 100 µM (inactive)
CAKI-1
  GI50: > 100 µM (inactive)
CCRF-CEM
  GI50: > 100 µM (inactive)
COLO 205
  GI50: > 100 µM (inactive)
DU-145
  GI50: > 100 µM (inactive)
EKVX
  GI50: > 100 µM (inactive)
HCC 2998
  GI50: > 100 µM (inactive)
HCT-116
  GI50: > 100 µM (inactive)
HCT-15
  GI50: > 100 µM
HL-60
  GI50: > 31.6 µM (inactive)
HOP-62
  GI50: > 100 µM (inactive)
HOP-92
  GI50: > 100 µM (inactive)
HT-29
  GI50: > 100 µM (inactive)
Hs-578T
  GI50: > 100 µM (inactive)
IGROV-1
  GI50: > 89.3 µM (inactive)
K562
  GI50: 78.3 µM (inactive)
KM12
  GI50: > 79.1 µM (inactive)
LOX IMVI
  GI50: > 100 µM (inactive)
M14
  GI50: > 100 µM (inactive)
MCF7
  GI50: > 100 µM (inactive)
MDA-MB-231
  GI50: > 100 µM (inactive)
MDA-MB-435
  GI50: > 100 µM (inactive)
MDA-N
  GI50: > 100 µM (inactive)
MOLT-4
  GI50: > 100 µM (inactive)
Malme-3M
  GI50: > 100 µM (inactive)
NCI-H226
  GI50: > 90.8 µM (inactive)
NCI-H23
  GI50: > 100 µM (inactive)
NCI-H460
  GI50: > 100 µM (inactive)
NCI-H522
  GI50: > 100 µM (inactive)
NCI/ADR-RES
  GI50: > 100 µM (inactive)
OVCAR-3
  GI50: > 100 µM (inactive)
OVCAR-4
  GI50: > 82.2 µM (inactive)
OVCAR-5
  GI50: > 100 µM (inactive)
OVCAR-8
  GI50: > 100 µM (inactive)
PC-3
  GI50: > 100 µM (inactive)
RPMI-8226
  GI50: > 86.9 µM (inactive)
RXF 393
  GI50: > 100 µM (inactive)
SF-268
  GI50: > 100 µM (inactive)
SF-295
  GI50: > 100 µM (inactive)
SF-539
  GI50: > 100 µM (inactive)
SK-MEL-28
  GI50: > 100 µM (inactive)
SK-MEL-2
  GI50: > 100 µM (inactive)
SK-MEL-5
  GI50: > 100 µM (inactive)
SK-OV-3
  GI50: > 100 µM (inactive)
SN12C
  GI50: > 100 µM (inactive)
SNB-19
  GI50: > 100 µM (inactive)
SNB-75
  GI50: > 100 µM (inactive)
SR
  GI50: > 100 µM (inactive)
SW-620
  GI50: > 100 µM (inactive)
T47D
  GI50: > 100 µM (inactive)
TK-10
  GI50: > 100 µM (inactive)
U-251
  GI50: > 100 µM (inactive)
UACC-257
  GI50: > 100 µM (inactive)
UACC-62
  GI50: > 54.6 µM (inactive)
UO-31
  GI50: > 100 µM (inactive)
